Experiments:
Assay type in all cases: in vivo
[1] = test system: Cabbage Looper [Trichoplusia ni (Hubner)]; assay: Cabbage looper leaf dip (CL), 3-5 days; conditions: percent in solution, second-instar larvae
Summary of the method: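 Steps: dilute compound in 50-50 acetone-water from 0.1% downward; immerse cotyledon pieces 2-3 s and dry; place in humid petri dishes with five second-instar larvae; record mortality at 3-5 days. Dosage-mortality curves yield LC50 as percent in solution.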

[2] = test system: Black Bean Aphid [Aphis fabae (Scop.)]; assay: Black bean aphid spray test on nasturtium (BBA), 48 hours; conditions: percent of test compound in sprayed solution
Protocol: The compounds in Tables 1 and 2 above were tested for insecticidal activity using the following testing procedures. LC50 values, based on the results of these tests and calculated according to dosage-mortality curves, are expressed in Table 3.
Black Bean Aphid [Aphis fabae (Scop.)]:
Nasturtium plants (Tropaeolum sp.) approximately 5 cm tall, were transplanted into sandy loam soil in small cups and infested with 25-50 black bean aphids of mixed ages. Twenty-four hours later they were sprayed to the point of runoff with 50-50 acetone-water solutions of the test compounds. Treated plants were held in the greenhouse and mortality was recorded after 48 hours. Test concentrations ranged from 0.05% downward. The LC-50 value is expressed below in Table 3 under the heading "BBA" in terms of percent of the test compound in the sprayed solution.

[3] = test system: Tobacco Budworm [Heliothis virescens (Fabricius)] eggs; assay: Tobacco budworm eggs (TBW-E); conditions: percent in solution; 2-day old eggs
Summary of the method: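 Mortality of dipped eggs served as read-out, recorded after untreated controls hatched and began feeding. Treatments used acetone solutions from 0.1% downward, with eggs incubated at 78° F; LC50 is expressed as percent of compound in the solution.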

[4] = test system: Housefly [Musca domestica]; assay: Housefly contact mortality in dishes (HF), 48 hours; conditions: μg of test compound per 25 female flies
Summary of the method: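 LC50 (μg compound per 25 female flies) derives from dosage-mortality curves of 48 h kill. Flies, females 1-2 days old, were held 25 per cage over a dish coated with dried acetone deposit, starting at 100 μg per cage and descending.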

| Structure (SMILES) | LC50 CL [1] | LC50 BBA [2] | LC50 TBW E (eggs) [3] | LC50 HF [4] |
| --- | --- | --- | --- | --- |
| CCOc1ccc(N=C(OCc2cccc(Oc3ccccc3)c2)C(C)(C)C)cc1 [Compound 164] | 0.005% | > 0.05% | > 0.1% | > 100 µg |
| CC(C)c1ccc(N=C(OCc2cccc(Oc3ccccc3)c2)C(C)(C)C)cc1 [Compound 165] | 0.007% | > 0.05% | > 0.1% | > 100 µg |
| CSc1cccc(N=C(OCc2cccc(Oc3ccccc3)c2)C(C)C)c1 [Compound 166] | 0.009% | 0.001% | > 0.1% | 22 µg |
| Cc1ccc(N=C(OCc2cccc(Oc3ccccc3)c2)C(C)(C)C)cc1C [Compound 167] | 0.02% | > 0.05% | > 0.1% | > 100 µg |
| CCOC(=O)c1cccc(N=C(OCc2cccc(Oc3ccccc3)c2)C(C)(C)C)c1 [Compound 168] | 0.1% | > 0.05% | > 0.1% | > 100 µg |
| COc1ccc(N=C(OCc2cccc(Oc3ccccc3)c2)C(C)C)cc1OC [Compound 169] | 0.009% | 0.003% | > 0.1% | 10 µg |
| CC(C)(C)C(=Nc1cccc([N+](=O)[O-])c1)OCc1cccc(Oc2ccccc2)c1 [Compound 175] | 0.018% | > 0.05% | > 0.1% | > 100 µg |
| CC(C)C(=Nc1ccc(F)cc1)OCc1cccc(Oc2cccc(Cl)c2)c1 [Compound 205] | 0.004% | 0.03% | > 0.1% | 50 µg |
| CC(C)C(=Nc1ccc(F)cc1)OCc1cccc(Oc2ccc(F)cc2F)c1 [Compound 206] | 0.0017% | 0.03% | > 0.1% | 50 µg |
| CC(C)C(=Nc1ccc(C#N)cc1)OCc1cccc(Oc2cccc(Cl)c2)c1 [Compound 208] | 0.0035% | 0.05% | > 0.1% | 27 µg |
| CCC(C)C(=Nc1ccc(Cl)c(Cl)c1)OCc1cccc(Oc2ccc(F)cc2)c1 (centres unmarked) [Compound 211] | 0.0017% | 0.01% | > 0.1% | 61 µg |
| CC(C)C(=Nc1ccc(F)c(F)c1)OCc1cccc(Oc2ccc(C#N)cc2)c1 [Compound 212] | 0.0005% | 0.05% | 0.045% | 20 µg |
| CC(C)C(=Nc1ccc(Cl)c(Cl)c1)OCc1cccc(Oc2ccc(F)cc2F)c1 [Compound 213] | 0.00075% | 0.01% | > 0.1% | > 100 µg |
| CC(C)C(=Nc1ccc(F)c(F)c1)OCc1cccc(Oc2ccc(F)cc2F)c1 [Compound 214] | 0.0003% | 0.01% | 0.04% | 19 µg |
| CC(C)C(=Nc1ccc(F)c(Cl)c1)OCc1cccc(Oc2cc(F)cc(F)c2)c1 [Compound 215] | 0.00075% | 0.05% | > 0.1% | 75 µg |
| CC(C)C(=Nc1ccc(Cl)c(Cl)c1)OCc1cccc(Oc2ccc(F)c(F)c2)c1 [Compound 218] | 0.0003% | 0.003% | 0.025% | 25 µg |
| COc1ccc(Oc2cccc(COC(=Nc3ccc(F)cc3)C(C)C)c2)cc1 [Compound 220] | 0.007% | 0.03% | > 0.1% | 85 µg |
| COc1ccc(Oc2cccc(COC(=Nc3ccc(F)c(Cl)c3)C(C)C)c2)cc1 [Compound 221] | 0.0027% | 0.01% | > 0.1% | 62 µg |
| CC(C)C(=Nc1ccc(C#N)c(F)c1)OCc1cccc(Oc2ccc(F)cc2)c1 [Compound 222] | 0.0015% | 0.01% | > 0.1% | 32 µg |
| COc1ccc(Oc2cccc(COC(=Nc3ccc(Cl)c(Cl)c3)C(C)C)c2)cc1 [Compound 223] | 0.008% | 0.003% | > 0.1% | 43 µg |
| CC(C)(Cl)C(=Nc1ccc(F)c(Cl)c1)OCc1cccc(Oc2ccc(F)cc2)c1 [Compound 224] | 0.001% | 0.05% | > 0.1% | > 100 µg |
| CC(C)C(=Nc1ccc(C#N)cc1)OCc1cccc(Oc2ccc(F)cc2)c1 [Compound 227] | 0.0015% | 0.01% | 0.1% | 10 µg |
| CC(C)C(=Nc1cccc(Br)c1)OCc1cccc(Oc2ccc(F)cc2)c1 [Compound 229] | 0.0005% | 0.006% | > 0.1% | 20 µg |
| Cc1ccc(Oc2cccc(COC(=Nc3ccc(F)cc3)C(C)C)c2)cc1 [Compound 231] | 0.003% | 0.01% | > 0.1% | > 100 µg |
| CC(C)C(=Nc1c(F)c(F)c(F)c(F)c1F)OCc1cccc(Oc2ccc(F)cc2F)c1 [Compound 232] | 0.004% | > 0.05% | > 0.1% | > 100 µg |
| CC(C)C(=Nc1ccc(C#N)c(F)c1)OCc1cccc(Oc2ccccc2)c1 [Compound 233] | 0.0017% | 0.01% | 0.09% | 10 µg |
